pIC50: −log10 of the molar value.
Tested on: Plasmodium berghei
Experiment: Luciferase/luciferin-expressing antifolate-resistant parasites were used to infect a culture of HepG2 cells that were pre-incubated with compounds. Infected hepatocytes emit light due to the luciferase reaction. Assay results are presented as the percent inhibition of light emission compared to control. […]
Format: functional
Settings: sporozoite; for IC90: read-out: LUCIFERASE INFECTION ASSAY - IC90

SMILES	IC90 [µM]	further results
Cc1n(-c2ccccc2)c2c([n+]1C)C(=O)c1ccccc1C2=O	0.202	pIC50 (HEPG2TOX_HILL_SLOPE 0.753, HEPG2TOX_R_SQUARED 0.901, PBLUC_HILL_SLOPE 2.16, PBLUC_R_SQUARED 0.72, read-out: LUCIFERASE INFECTION ASSAY - IC50): 7.14
O=C(COc1ccc(Oc2ccccc2)cc1)NCc1cn2ccccc2n1	1.77	pIC50 (HEPG2TOX_HILL_SLOPE 0.752, HEPG2TOX_R_SQUARED 0.901, PBLUC_HILL_SLOPE 2.64, PBLUC_R_SQUARED 0.419, read-out: LUCIFERASE INFECTION ASSAY - IC50): 6.11
CCCN1C(=O)/C(=N\OCC(=O)c2cc(C)n(Cc3cccs3)c2C)c2ccccc21	> 10	pIC50 (HEPG2TOX_HILL_SLOPE 0.794, HEPG2TOX_R_SQUARED 0.3, read-out: LUCIFERASE INFECTION ASSAY - IC50): < 5.00
Cc1nn(C)c(C)c1CC(=O)Nc1ccc(-n2cnc3ccccc32)cc1	> 10	pIC50 (HEPG2TOX_HILL_SLOPE 0.764, HEPG2TOX_R_SQUARED 0.908, PBLUC_HILL_SLOPE 0.735, PBLUC_R_SQUARED 0.618, read-out: LUCIFERASE INFECTION ASSAY - IC50): 5.88
Cc1cccc(C)c1OC(=O)c1cn(Cc2ccccc2)nc1-c1cccnc1	> 10	pIC50 (HEPG2TOX_HILL_SLOPE 0.808, HEPG2TOX_R_SQUARED 0.825, read-out: LUCIFERASE INFECTION ASSAY - IC50): < 5.00
O=C(C(Sc1nc2cc(S(=O)(=O)N3CCCCC3)ccc2o1)c1ccccc1)N1CCCCC1 (configuration not stated)	> 10	pIC50 (HEPG2TOX_HILL_SLOPE 0.777, HEPG2TOX_R_SQUARED 0.137, read-out: LUCIFERASE INFECTION ASSAY - IC50): < 5.00
O=C(Nc1ccccc1Oc1ccccc1Cl)c1cc2ccccc2c(=O)[nH]1	1.25	pIC50 (HEPG2TOX_HILL_SLOPE 0.764, HEPG2TOX_R_SQUARED 0.704, PBLUC_HILL_SLOPE 15.6, PBLUC_R_SQUARED 0.531, read-out: LUCIFERASE INFECTION ASSAY - IC50): 5.96
CC(=O)c1cccc(-c2cnc3ccc(Cc4ccc(F)cc4)nn23)c1	5.55	pIC50 (HEPG2TOX_HILL_SLOPE 0.753, HEPG2TOX_R_SQUARED 0.0911, PBLUC_HILL_SLOPE 6.85, PBLUC_R_SQUARED 0.304, read-out: LUCIFERASE INFECTION ASSAY - IC50): 5.40
CC(Nc1ncnc2sccc12)c1ccc(F)cc1 (configuration not stated)	8.6	pIC50 (HEPG2TOX_HILL_SLOPE 0.743, HEPG2TOX_R_SQUARED 0.939, PBLUC_HILL_SLOPE 0.968, PBLUC_R_SQUARED 0.762, read-out: LUCIFERASE INFECTION ASSAY - IC50): 6.05
COc1cncc(-c2cc3c(cn2)nc(NCCc2cc(OC)ccc2OC)n3C)c1	8.42	pIC50 (HEPG2TOX_HILL_SLOPE 0.77, HEPG2TOX_R_SQUARED 0.89, PBLUC_HILL_SLOPE 0.989, PBLUC_R_SQUARED 0.368, read-out: LUCIFERASE INFECTION ASSAY - IC50): 6.04
Cc1nc2ccccc2nc1SC(C)C(=O)c1c[nH]c2ccccc12 (configuration not stated)	1.98	pIC50 (HEPG2TOX_HILL_SLOPE 0.739, HEPG2TOX_R_SQUARED 0.941, PBLUC_HILL_SLOPE 2.85, PBLUC_R_SQUARED 0.882, read-out: LUCIFERASE INFECTION ASSAY - IC50): 6.04
CCN(CC)S(=O)(=O)c1ccc2c(c1)CCN2Cc1nc2ccccc2c(=O)n1C	> 10	pIC50 (HEPG2TOX_HILL_SLOPE 0.751, HEPG2TOX_R_SQUARED 0.213, PBLUC_HILL_SLOPE 2.58, PBLUC_R_SQUARED 0.526, read-out: LUCIFERASE INFECTION ASSAY - IC50): 5.22
O=C(Nc1nc2ccccn2c1C(=O)NC1CCCC1)c1cccc(Cl)c1F	1.24	pIC50 (HEPG2TOX_HILL_SLOPE 0.754, HEPG2TOX_R_SQUARED 0.896, PBLUC_HILL_SLOPE 3.54, PBLUC_R_SQUARED 0.569, read-out: LUCIFERASE INFECTION ASSAY - IC50): 6.17
COc1cc(-c2ccc3ncc(-c4cccc(NC(C)=O)c4)n3n2)cc(OC)c1OC	4.34	pIC50 (HEPG2TOX_HILL_SLOPE 0.736, HEPG2TOX_R_SQUARED 0.983, PBLUC_HILL_SLOPE 1.49, PBLUC_R_SQUARED 0.582, read-out: LUCIFERASE INFECTION ASSAY - IC50): 6.00
Cc1nn(Cc2ccccc2)c2sc(C(=O)Nc3nc4ccccc4[nH]3)cc12	0.562	pIC50 (HEPG2TOX_HILL_SLOPE 0.737, HEPG2TOX_R_SQUARED 0.843, PBLUC_HILL_SLOPE 3.70, 1.65, PBLUC_R_SQUARED 0.424, 0.851, read-out: LUCIFERASE INFECTION ASSAY - IC50): 6.64
COc1cc2c(cc1OC)CN(C(=O)c1ccc(OCC(F)(F)F)nc1)CC2	7.21	pIC50 (HEPG2TOX_HILL_SLOPE 0.758, HEPG2TOX_R_SQUARED 0.894, PBLUC_HILL_SLOPE 2.65, PBLUC_R_SQUARED 0.321, read-out: LUCIFERASE INFECTION ASSAY - IC50): 5.50

SMILES	IC90 [µM]	further results
CC(=O)c1cccc(-c2cnc3ccc(-c4cccc(Cl)c4)nn23)c1	8.63	pIC50 (HEPG2TOX_HILL_SLOPE 0.743, HEPG2TOX_R_SQUARED 0.718, PBLUC_HILL_SLOPE 1.63, PBLUC_R_SQUARED 0.591, read-out: LUCIFERASE INFECTION ASSAY - IC50): 5.65
COc1ccc(C(=O)NNC(=O)c2nn(-c3ccccc3)cc2O)c(OC)c1OC	2.77	pIC50 (HEPG2TOX_HILL_SLOPE 0.737, HEPG2TOX_R_SQUARED 0.981, PBLUC_HILL_SLOPE 4.06, PBLUC_R_SQUARED 0.568, read-out: LUCIFERASE INFECTION ASSAY - IC50): 5.79
COc1cccc(C(O)c2nc(C(=O)Nc3ccc(OCc4ccccc4)cc3)cs2)c1 (configuration not stated)	4.39	pIC50 (HEPG2TOX_HILL_SLOPE 0.759, HEPG2TOX_R_SQUARED 0.957, PBLUC_HILL_SLOPE 2.06, PBLUC_R_SQUARED 0.859, read-out: LUCIFERASE INFECTION ASSAY - IC50): 5.82
CCOc1cccc(-c2cn3c(-c4ccc(OC)cc4)cnc3cn2)c1	0.375	pIC50 (HEPG2TOX_HILL_SLOPE 0.801, HEPG2TOX_R_SQUARED 0.8, PBLUC_HILL_SLOPE 14.9, PBLUC_R_SQUARED 0.835, read-out: LUCIFERASE INFECTION ASSAY - IC50): 6.49
Cc1ccc2ncnc(NCCc3ccccc3)c2c1	2.82	pIC50 (HEPG2TOX_HILL_SLOPE 0.814, HEPG2TOX_R_SQUARED 0.649, PBLUC_HILL_SLOPE 2.08, PBLUC_R_SQUARED 0.658, read-out: LUCIFERASE INFECTION ASSAY - IC50): 6.01
CN(c1ccccc1)c1nccc2nc(-c3ccncc3)[nH]c12	> 10	pIC50 (HEPG2TOX_HILL_SLOPE 0.766, HEPG2TOX_R_SQUARED 0.225, read-out: LUCIFERASE INFECTION ASSAY - IC50): < 5.00
CCOC(=O)C1=C(C)NC(C)=C(C(=O)OCC)C1C(=O)OCC(=O)Nc1c(Br)cc(C)cc1Br	> 10	pIC50 (HEPG2TOX_HILL_SLOPE 0.766, HEPG2TOX_R_SQUARED 0.947, PBLUC_HILL_SLOPE 2.01, PBLUC_R_SQUARED 0.575, read-out: LUCIFERASE INFECTION ASSAY - IC50): 5.35
CN(c1ccccc1)S(=O)(=O)c1ccc(C(=O)Nc2nn3cc(-c4ccccc4)nc3s2)cc1	> 10	pIC50 (HEPG2TOX_HILL_SLOPE 0.762, HEPG2TOX_R_SQUARED 0.67, PBLUC_HILL_SLOPE 10.6, PBLUC_R_SQUARED 0.0386, read-out: LUCIFERASE INFECTION ASSAY - IC50): < 5.00
c1ccc2cc(OCCNc3ncnc4sccc34)ccc2c1	3.89	pIC50 (HEPG2TOX_HILL_SLOPE 0.735, HEPG2TOX_R_SQUARED 0.741, PBLUC_HILL_SLOPE 1.1, PBLUC_R_SQUARED 0.73, read-out: LUCIFERASE INFECTION ASSAY - IC50): 6.28
Cn1nc(C(C)(C)C)cc1NC(=O)Cc1ccc(-c2ccccc2)cc1	> 10	pIC50 (HEPG2TOX_HILL_SLOPE 0.763, HEPG2TOX_R_SQUARED 0.965, PBLUC_HILL_SLOPE 1.31, PBLUC_R_SQUARED 0.513, read-out: LUCIFERASE INFECTION ASSAY - IC50): 5.53
COc1cccc(CN2CCN3C(C(=O)Nc4cccc(OC(F)(F)F)c4)=COC3=NC2=O)c1	> 10	pIC50 (HEPG2TOX_HILL_SLOPE 0.751, HEPG2TOX_R_SQUARED 0.867, PBLUC_HILL_SLOPE 2.96, PBLUC_R_SQUARED 0.388, read-out: LUCIFERASE INFECTION ASSAY - IC50): 5.16
O=C(COc1ccccc1C(=O)N/N=C/c1ccccc1O)Nc1ccc(SC(F)F)cc1	1.53	pIC50 (HEPG2TOX_HILL_SLOPE 0.754, HEPG2TOX_R_SQUARED 0.891, PBLUC_HILL_SLOPE 11.1, PBLUC_R_SQUARED 0.496, read-out: LUCIFERASE INFECTION ASSAY - IC50): 5.90
CC(=O)c1cccc(-c2cnc3ccc(-c4cccc(N)c4)nn23)c1	3.85	pIC50 (HEPG2TOX_HILL_SLOPE 0.765, HEPG2TOX_R_SQUARED 0.894, PBLUC_HILL_SLOPE 1.06, PBLUC_R_SQUARED 0.553, read-out: LUCIFERASE INFECTION ASSAY - IC50): 6.32
CC(=O)Nc1cccc(-c2cnc3ccc(-c4cccs4)nn23)c1	3.37	pIC50 (HEPG2TOX_HILL_SLOPE 0.814, HEPG2TOX_R_SQUARED 0.982, PBLUC_HILL_SLOPE 1.1, PBLUC_R_SQUARED 0.75, read-out: LUCIFERASE INFECTION ASSAY - IC50): 6.34
N#CC(C#N)=Cc1c(-c2ccc(Cl)cc2)[nH]c2ccccc12	1.39	pIC50 (HEPG2TOX_HILL_SLOPE 0.752, HEPG2TOX_R_SQUARED 0.846, PBLUC_HILL_SLOPE 1.54, PBLUC_R_SQUARED 0.775, read-out: LUCIFERASE INFECTION ASSAY - IC50): 6.48
